Laboratory results reported in patent EP3414211B1, “PLASTER COMPOSITION” (priority 2016, dated 2017).

What was measured:
[1] = Foamability (foam volume) after one minute of foam generation with an Ultra Turrax system at 8200 rpm; format: physicochemical
Method: The "foamability", i.e. the volume of foam produced, and the foam stability were tested for a number of combinations of foaming agent and co-surfactant. Specifically, a number of foaming solutions were prepared containing various amounts of foaming agent and co-surfactant. The following foaming agents were tested: FA1 mixture of linear sodium octyl sulfate, sodium decyl sulfate, and sodium dodecyl sulfate as described in EP1328485. FA2 sodium n-decyl sulfate (Empicol® 0758, available from Huntsman) FA3 alkyl ether sulfate (Millifoam® H, available from Huntsman) FA4 STEOL ® DES32-IS (alkyl ether sulfate based surfactant, available from Stepan)
Each of the foaming agents was mixed with 5 wt%, 10 wt%, and 20 wt% (relative to the weight of foaming agent) of the following co-surfactants: CS1 lauramine oxide (dodecyldimethylamine oxide), available under the trade name Empigen® OB (Huntsman Performance Products) CS2 C8-10alkyl polyglucoside available under the trade name Glucopon 215® (comparative example)
(§1) For each mixture, foamability (foam volume) and foam stability were measured after one minute of foam generation with an Ultra Turrax system at 8200 rpm.

[2] = Foam stability (foam half-life: time to recover one half of the original liquid volume from the foam); format: physicochemical
Method: as §1
Also the foam stability was tested, by measuring the foam half-life, i.e. the amount of time it takes to recover one half of the original volume of liquid from a measured volume of foam.

[3] = co-surfactant mixed at 5, 10, 20 wt% with foaming agents

SMILES | effect of co-surfactant on foamability (foam volume) of the foaming agents [1, 3] | effect of co-surfactant on foam stability [2, 3] | Foam volume increase (%) ([1]; 0 % CS1 (baseline)) | Foam volume ([1]; 0 % CS1 (wt% relative to total foaming agent and co-surfactant)) [mL] | Foam volume ([1]; 5 % CS1) [mL] | Foam volume increase (%) ([1]; 5 % CS1, versus 0 % CS1) | Foam volume ([1]; 10 % CS1) [mL] | Foam volume increase (%) ([1]; 10 % CS1, versus 0 % CS1) | Foam volume ([1]; 20 % CS1) [mL] | Foam volume increase (%) ([1]; 20 % CS1, versus 0 % CS1) | Half-life ([2]; 0 % CS1) [min] | Half-life increase (%) ([2]; 0 % CS1 (baseline)) | Half-life ([2]; 5 % CS1) [min] | Half-life increase (%) ([2]; 5 % CS1, versus 0 % CS1) | Half-life ([2]; 10 % CS1) [min] | Half-life increase (%) ([2]; 10 % CS1, versus 0 % CS1) | Half-life ([2]; 20 % CS1) [min] | Half-life increase (%) ([2]; 20 % CS1, versus 0 % CS1)
CCCCCCCCCCCC[N+](C)(C)[O-] [CS1, dodecyldimethylamine oxide] | significantly increase | highest foam stability improvement | – | – | – | – | – | – | – | – | – | – | – | – | – | – | – | –
CCCCCCCCCCOS(=O)(=O)[O-].[Na+] [FA2, sodium n-decyl sulfate] | – | – | 0 | 530 | 562 | 6 | 599 | 13 | 588 | 11 | 5.78 | 0 | 6.18 | 7 | 6.87 | 11 | 8.4 | 36
